Source: PubChem BioAssay AID248 (DTP/NCI, 2004)
“And” between values parts separate entries of the source, which are not always exact repeats. Equal values may be shown once. Inconclusive results and toxic doses are left out.

Test system: L1210 leukemia ip in BDF1 mice, survival T/C
Test: NCI In Vivo Anticancer Drug Screen. Data for tumor model L1210 Leukemia (intraperitoneal) in B6D2F1 (BDF1) mice
Details: higher = longer survival
Outline: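 Tumor cells were implanted, animals were treated, and survival was followed. The result divides the treated measurement by the vehicle-control measurement.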

`CCCCCCCN(CCCCCCC)C(=O)N(C)C` was tested, and the T/C (endpoint: mean survival time, dose: 100.0 mg/kg/injection, schedule: Q04DX002 (sc), vehicle: olive oil, sesame oil, peanut oil) was 104 % of control, the T/C (endpoint: mean survival time, dose: 200.0 mg/kg/injection, schedule: Q04DX002 (sc), vehicle: olive oil, sesame oil, peanut oil) was 107 % of control and the T/C (endpoint: mean survival time, dose: 400.0 mg/kg/injection, schedule: Q04DX002 (sc), vehicle: olive oil, sesame oil, peanut oil) was 114 % of control.
For `CCOC(=O)CCCc1ccc(N/N=N/c2nc[nH]c2C(N)=O)cc1`, the T/C (endpoint: mean survival time, dose: 25.0 mg/kg/injection, schedule: Q01DX Z (ip), vehicle: carboxymethylcellulose (CMC)) was 94 % of control, the T/C (endpoint: mean survival time, dose: 50.0 mg/kg/injection, schedule: Q01DX Z (ip), vehicle: carboxymethylcellulose (CMC)) was 88 % of control and the T/C (endpoint: mean survival time, dose: 75.0 mg/kg/injection, schedule: Q01DX Z (ip), vehicle: carboxymethylcellulose (CMC)) was 88 % of control. For the same compound, the T/C (endpoint: mean survival time, dose: 100.0 mg/kg/injection, schedule: Q01DX Z (ip), vehicle: carboxymethylcellulose (CMC)) was 103 % of control and the T/C (endpoint: mean survival time, dose: 200.0 mg/kg/injection, schedule: Q01DX Z (ip), vehicle: carboxymethylcellulose (CMC)) was 88 % of control.
For `O=C/C=C\c1ccccc1O`, the T/C (endpoint: mean survival time, dose: 100.0 mg/kg/injection, schedule: Q01DX001 (ip), vehicle: saline) was 105 % of control and the T/C (endpoint: mean survival time, dose: 200.0 mg/kg/injection, schedule: Q01DX001 (ip), vehicle: saline) was 105 % of control.
`COc1cc2c(c(OC)c1OC)-c1ccc(OC)c(=O)cc1[C@@H](NC(C)=O)CC2` was tested, and the T/C (endpoint: mean survival time, dose: 0.01 mg/kg/injection, schedule: Q01DX010 (ip), vehicle: saline) was 96 % of control and 97 % of control, the T/C (endpoint: mean survival time, dose: 0.02 mg/kg/injection, schedule: Q01DX010 (ip), vehicle: saline) was 93 % of control and 103 % of control and the T/C (endpoint: mean survival time, dose: 0.04 mg/kg/injection, schedule: Q01DX010 (ip), vehicle: saline) was 102 % of control and 103 % of control. For the same compound, the T/C (endpoint: mean survival time, dose: 0.06 mg/kg/injection, schedule: Q01DX015 (ip), vehicle: saline) was 98 % of control, the T/C (endpoint: mean survival time, dose: 0.08 mg/kg/injection, schedule: Q01DX010 (ip), vehicle: saline) was 102 % of control and 115 % of control and the T/C (endpoint: mean survival time, dose: 0.09 mg/kg/injection, schedule: Q01DX015 (ip), vehicle: saline) was 100 % of control. The T/C (endpoint: mean survival time, dose: 0.09 mg/kg/injection, schedule: Q02DX008 (ip), vehicle: saline) was 97 % of control, the T/C (endpoint: mean survival time, dose: 0.1 mg/kg/injection, schedule: Q## X032 (ip), vehicle: saline) was 98 % of control and the T/C (endpoint: mean survival time, dose: 0.13 mg/kg/injection, schedule: Q01DX009 (ip), vehicle: saline) was 110 % of control. For the same compound, the T/C (endpoint: mean survival time, dose: 0.13 mg/kg/injection, schedule: Q01DX015 (ip), vehicle: saline) was 104 % of control, the T/C (endpoint: mean survival time, dose: 0.13 mg/kg/injection, schedule: Q02DX008 (ip), vehicle: saline) was 97 % of control and the T/C (endpoint: mean survival time, dose: 0.16 mg/kg/injection, schedule: Q## X032 (ip), vehicle: saline) was 97 % of control. The T/C (endpoint: mean survival time, dose: 0.2 mg/kg/injection, schedule: Q01DX015 (ip), vehicle: saline) was 113 % of control, the T/C (endpoint: mean survival time, dose: 0.2 mg/kg/injection, schedule: Q02DX008 (ip), vehicle: saline) was 103 % of control and the T/C (endpoint: mean survival time, dose: 0.24 mg/kg/injection, schedule: Q## X032 (ip), vehicle: saline) was 100 % of control. The T/C (endpoint: mean survival time, dose: 0.25 mg/kg/injection, schedule: Q01DX005 (oral), vehicle: saline) was 102 % of control, the T/C (endpoint: mean survival time, dose: 0.25 mg/kg/injection, schedule: Q01DX009 (ip), vehicle: saline) was 113 % of control and the T/C (endpoint: mean survival time, dose: 0.25 mg/kg/injection, schedule: Q04DX003 (ip), vehicle: saline) was 121 % of control. The T/C (endpoint: mean survival time, dose: 0.3 mg/kg/injection, schedule: Q01DX015 (ip), vehicle: saline) was 117 % of control, the T/C (endpoint: mean survival time, dose: 0.3 mg/kg/injection, schedule: Q02DX008 (ip), vehicle: saline) was 106 % of control and the T/C (endpoint: mean survival time, dose: 0.36 mg/kg/injection, schedule: Q## X032 (ip), vehicle: saline) was 102 % of control. The T/C (endpoint: mean survival time, dose: 0.45 mg/kg/injection, schedule: Q02DX008 (ip), vehicle: saline) was 120 % of control, the T/C (endpoint: mean survival time, dose: 0.5 mg/kg/injection, schedule: Q01DX001 (iv), vehicle: saline) was 93 % of control and the T/C (endpoint: mean survival time, dose: 0.5 mg/kg/injection, schedule: Q01DX005 (oral), vehicle: saline) was 101 % of control. For the same compound, the T/C (endpoint: mean survival time, dose: 0.5 mg/kg/injection, schedule: Q01DX009 (ip), vehicle: saline) was 108 % of control, the T/C (endpoint: mean survival time, dose: 0.5 mg/kg/injection, schedule: Q04DX003 (ip), vehicle: saline) was 116 % of control and the T/C (endpoint: mean survival time, dose: 0.5 mg/kg/injection, schedule: Q## X032 (ip), vehicle: saline) was 105 % of control. The T/C (endpoint: mean survival time, dose: 0.54 mg/kg/injection, schedule: Q04DX004 (ip), vehicle: saline) was 112 % of control, the T/C (endpoint: mean survival time, dose: 0.54 mg/kg/injection, schedule: Q## X032 (ip), vehicle: saline) was 105 % of control and the T/C (endpoint: mean survival time, dose: 0.6 mg/kg/injection, schedule: Q## X004 (ip), vehicle: saline) was 112 % of control. For the same compound, the T/C (endpoint: mean survival time, dose: 0.8 mg/kg/injection, schedule: Q04DX004 (ip), vehicle: saline) was 114 % of control, the T/C (endpoint: mean survival time, dose: 0.8 mg/kg/injection, schedule: Q## X032 (ip), vehicle: saline) was 114 % of control and the T/C (endpoint: mean survival time, dose: 0.9 mg/kg/injection, schedule: Q## X004 (ip), vehicle: saline) was 114 % of control. For the same compound, the T/C (endpoint: mean survival time, dose: 1.0 mg/kg/injection, schedule: Q01DX001 (iv), vehicle: saline) was 97 % of control, the T/C (endpoint: mean survival time, dose: 1.0 mg/kg/injection, schedule: Q01DX005 (oral), vehicle: saline) was 100 % of control and the T/C (endpoint: mean survival time, dose: 1.0 mg/kg/injection, schedule: Q01DX009 (ip), vehicle: saline) was 122 % of control. For the same compound, the T/C (endpoint: mean survival time, dose: 1.0 mg/kg/injection, schedule: Q04DX003 (ip), vehicle: saline) was 104 % of control, the T/C (endpoint: mean survival time, dose: 1.2 mg/kg/injection, schedule: Q04DX004 (ip), vehicle: saline) was 116 % of control and the T/C (endpoint: mean survival time, dose: 1.25 mg/kg/injection, schedule: Q01DX001 (ip), vehicle: saline) was 101 % of control and 114 % of control and 123 % of control. The T/C (endpoint: mean survival time, dose: 1.3 mg/kg/injection, schedule: Q## X004 (ip), vehicle: saline) was 121 % of control, the T/C (endpoint: mean survival time, dose: 1.6 mg/kg/injection, schedule: Q## X032 (ip), vehicle: saline) was 124 % of control and the T/C (endpoint: mean survival time, dose: 2.0 mg/kg/injection, schedule: Q01DX001 (iv), vehicle: saline) was 107 % of control. For the same compound, the T/C (endpoint: mean survival time, dose: 2.0 mg/kg/injection, schedule: Q01DX001 (oral), vehicle: saline) was 91 % of control, the T/C (endpoint: mean survival time, dose: 2.0 mg/kg/injection, schedule: Q01DX005 (oral), vehicle: saline) was 92 % of control and the T/C (endpoint: mean survival time, dose: 2.0 mg/kg/injection, schedule: Q## X004 (ip), vehicle: saline) was 156 % of control. For the same compound, the T/C (endpoint: mean survival time, dose: 2.5 mg/kg/injection, schedule: Q01DX001 (ip), vehicle: saline) was 118 % of control and 124 % of control, the T/C (endpoint: mean survival time, dose: 3.6 mg/kg/injection, schedule: Q## X032 (ip), vehicle: saline) was 102 % of control and the T/C (endpoint: mean survival time, dose: 4.0 mg/kg/injection, schedule: Q01DX001 (iv), vehicle: saline) was 97 % of control. The T/C (endpoint: mean survival time, dose: 4.0 mg/kg/injection, schedule: Q01DX001 (oral), vehicle: saline) was 100 % of control, the T/C (endpoint: mean survival time, dose: 4.0 mg/kg/injection, schedule: Q08DX002 (ip), vehicle: saline) was 108 % of control and the T/C (endpoint: mean survival time, dose: 5.0 mg/kg/injection, schedule: Q01DX001 (ip), vehicle: saline) was 94 % of control and 118 % of control. The T/C (endpoint: mean survival time, dose: 8.0 mg/kg/injection, schedule: Q01DX001 (oral), vehicle: saline) was 92 % of control, the T/C (endpoint: mean survival time, dose: 31.2 micrograms/kg/injection, schedule: Q03HX024 (ip), vehicle: saline) was 97 % of control and the T/C (endpoint: mean survival time, dose: 62.5 micrograms/kg/injection, schedule: Q01DX005 (iv), vehicle: saline) was 100 % of control. For the same compound, the T/C (endpoint: mean survival time, dose: 62.5 micrograms/kg/injection, schedule: Q01DX009 (ip), vehicle: saline) was 101 % of control, the T/C (endpoint: mean survival time, dose: 62.5 micrograms/kg/injection, schedule: Q03HX016 (ip), vehicle: saline) was 102 % of control and the T/C (endpoint: mean survival time, dose: 62.5 micrograms/kg/injection, schedule: Q03HX024 (ip), vehicle: saline) was 104 % of control. The T/C (endpoint: mean survival time, dose: 125.0 micrograms/kg/injection, schedule: Q01DX005 (iv), vehicle: saline) was 98 % of control, the T/C (endpoint: mean survival time, dose: 125.0 micrograms/kg/injection, schedule: Q01DX009 (ip), vehicle: saline) was 115 % of control and the T/C (endpoint: mean survival time, dose: 125.0 micrograms/kg/injection, schedule: Q03HX008 (ip), vehicle: saline) was 123 % of control. For the same compound, the T/C (endpoint: mean survival time, dose: 125.0 micrograms/kg/injection, schedule: Q03HX016 (ip), vehicle: saline) was 107 % of control, the T/C (endpoint: mean survival time, dose: 125.0 micrograms/kg/injection, schedule: Q03HX024 (ip), vehicle: saline) was 109 % of control and the T/C (endpoint: mean survival time, dose: 250.0 micrograms/kg/injection, schedule: Q01DX005 (iv), vehicle: saline) was 98 % of control. The T/C (endpoint: mean survival time, dose: 250.0 micrograms/kg/injection, schedule: Q03HX016 (ip), vehicle: saline) was 121 % of control, the T/C (endpoint: mean survival time, dose: 250.0 micrograms/kg/injection, schedule: Q03HX024 (ip), vehicle: saline) was 96 % of control and the T/C (endpoint: mean survival time, dose: 500.0 micrograms/kg/injection, schedule: Q01DX005 (iv), vehicle: saline) was 100 % of control. For the same compound, the T/C (endpoint: mean survival time, dose: 1000.0 micrograms/kg/injection, schedule: Q01DX005 (iv), vehicle: saline) was 107 % of control, the T/C (endpoint: mean survival time, dose: 1000.0 micrograms/kg/injection, schedule: Q01DX009 (ip), vehicle: saline) was 87 % of control and the T/C (endpoint: median survival time, dose: 0.02 mg/kg/injection, schedule: Q01DX009 (ip), vehicle: saline) was 93 % of control and 100 % of control. The T/C (endpoint: median survival time, dose: 0.04 mg/kg/injection, schedule: Q01DX009 (ip), vehicle: saline) was 100 % of control, the T/C (endpoint: median survival time, dose: 0.08 mg/kg/injection, schedule: Q01DX009 (ip), vehicle: saline) was 106 % of control and 111 % of control and the T/C (endpoint: median survival time, dose: 0.16 mg/kg/injection, schedule: Q01DX009 (ip), vehicle: saline) was 112 % of control.
